{"source": "paper PMC5444859", "about": "(PLoS Pathogens, 2017)", "biological_target": "CASV L-Cterm (CAS virus, UniProt J7HBG8)", "type": "binding"}
{"smiles": "C[n+]1cn([C@@H]2O[C@H](COP(=O)(O)OP(=O)(O)OP(=O)(O)O)[C@@H](O)[C@H]2O)c2nc(N)[nH]c(=O)c21", "note": "[m^7GTP]", "values": [{"measurement": "X-ray crystallography, crystal soaking", "result": "the cap-analogue was bound to F1839 at the periphery of the β-sheet"}]}
